# From paper PMC6368365, “Didehydro-Cortistatin A Inhibits HIV-1 by Specifically Binding to the Unstructured Basic Region of Tat” (mBio, 2019)
# Key:
# Hexim-1 = biological target: T1, Hexim-1 (Homo sapiens, UniProt O94992); assay: Confocal immunofluorescence of Hexim-1 subcellular localization; type: cell-based; settings: HeLa-CD4-LTR-Luc cells
# T1 construct: endogenous in cells; host or cells: HeLa-CD4-LTR-LacZ (RNA immunoprecipitation); HeLa-CD4-LTR-Luc (immunofluorescence)
# From the text: (A) Sequence of the basic domains of HIV Tat HXB3, HIV Rev Bru and intracellular Hexim-1. […] Shown is confocal microscopy analysis of the subcellular localization of transfected FLAG-Tat or FLAG-Rev in the presence of DMSO or dCA in HeLa-CD4-LTR-Luc cells. Proteins were recognized with anti-FLAG and Alexa Fluor 568-tagged anti-IgG. Magnification 60×. Data are representative of n = 2 independent experiments. (C) Quantification of the nucleolar fluorescence of panel B using ImageJ. Data are the mean ± SEM from 3 to 4 different cells. […] HeLa-CD4-LTR-LacZ cells were infected with strain NL4-3 for 24 hours. The next day, compounds (dCA, 10 nM; KPT, 400 nM; and SCM, 10 nM) were added for 24 hours. Total, nuclear, and cytoplasmic mRNAs were extracted, and viral messages were determined by qRT-PCR. GAPDH was used for normalization. Data are the mean ± SD from n = 5 independent experiments. […] (G) Quantification of nuclear fluorescence of panel F using ImageJ. […] Statistical significance was determined using one-way ANOVA with post hoc Tukey’s test. ns, not significant; ***, P < 0.0001; **, P < 0.001.
# Hexim-1 directly binds to cyclin T1 and is responsible for the inactivation of the kinase activity of P-TEFb ([35], [36]). […] Intracellular Hexim-1 was immunoprecipitated, and 7SK snRNP bound to Hexim-1 was extracted, reverse transcribed, and quantified by qRT-PCR as previously described ([42]) (Fig. 3E). […]
# HIV-1 TAR = assay: ITC of dCA binding to TAR; settings: 25°C
# From the text: FIG 6 dCA binding to Tat disrupts Tat-TAR interaction. (A) EMSA of full-length Tat with TAR in the presence of dCA. Raltegravir (Ralt.) and deleted bulge TAR (ΔTAR) were used as negative controls. Data are representative of n = 3 independent experiments. (B) EMSA of Tat’s basic domain with TAR in the presence of increasing concentrations of dCA to Tat’s basic peptide. Pep B is a peptide encompassing the basic domain of HIV Tat (^45ISYGRKKRRQRRRAP^59). Pep C (^69LSKQPASQPRGDPTG^83) and unlabeled or cold TAR (TARc) were used as negative controls. Neomycin, which binds to Tat and TAR, was used as a positive control. Ratios of compounds (or TARc) concentrations to peptide are shown. Data are representative of n = 3 independent experiments. […] Shown are ITC results from binding of dCA (left) or Tat peptide (right) to TAR at 25°C. […] Luciferase activity was determined relative to protein concentration (Bradford assay) (Fig. S9A). […] Statistical significance was determined using one-way ANOVA with post hoc Tukey’s test with 3 technical replicates. ns, not significant; ***, P < 0.0001. […]
# Isothermal titration calorimetry. […] Each injection generated a heat burst curve (microcalories/second vs. seconds) and the area under each curve was determined by integration [using the origin version 7.0 software (Microcal, Inc.; Northampton, MA)] to obtain the measure of the heat associated with that injection.
# T1 sequence (O94992 whole entry): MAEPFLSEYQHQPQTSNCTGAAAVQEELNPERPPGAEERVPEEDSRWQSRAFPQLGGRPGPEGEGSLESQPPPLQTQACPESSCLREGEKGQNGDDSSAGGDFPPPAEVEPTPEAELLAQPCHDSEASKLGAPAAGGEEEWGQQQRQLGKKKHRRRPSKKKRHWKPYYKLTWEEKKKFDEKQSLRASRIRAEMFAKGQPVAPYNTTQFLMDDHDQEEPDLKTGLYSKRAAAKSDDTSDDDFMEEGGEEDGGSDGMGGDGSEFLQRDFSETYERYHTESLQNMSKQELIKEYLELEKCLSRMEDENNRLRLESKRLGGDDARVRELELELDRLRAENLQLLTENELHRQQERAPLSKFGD
compound,measurement,setting,value
"CN(C)C1CC23CCC4(O2)C(=CCC2(C)C(c5ccc6ccncc6c5)=CCC24)C=C3C(O)C1O (centres unmarked) [dCA, didehydro-cortistatin A]",Hexim-1 nuclear localization,Hexim-1,did not have any effect
same,binding to TAR (ITC),HIV-1 TAR,does not bind to TAR
